Measurements from patent publication US10273267B2, “Beta-hairpin peptidomimetics as selective elastase inhibitors” (POLYPHOR AG, priority 2013, dated 2019).
*1 amine or outer side, *2 acyl side, *3 side chain or, on linkers, in order; H or OH if unused. Where a SMILES comes first, the peptide text is derived from it. [ ]: non-standard residue; d: D form. The star is where a group is joined. X1 = NCCCC[C@@H](CCC(=O)[*:2])N[*:1]; Gly(octyl) = CCCCCCCC[C@H](N)C(=O)O; β3hP = O=C(O)C[C@@H]1CCCN1; hSer = N[C@@H](CCO)C(=O)O; Octanoyl = CCCCCCCC(=O)*; Dab = NCC[C@H](N)C(=O)O

What was measured:
Assay type in all cases: biochemical
human proteinase 3 = target: T1, human proteinase 3 (Homo sapiens, UniProt P24158); assay: Inhibition of human proteinase 3 (substrate Boc-Ala-Ala-Nva-SBzl); settings: for hNE/hPr3 selectivity: ratio of hPr3 IC50 to hNE IC50; for IC50: substrate Boc-Ala-Ala-Nva-SBzl 1 mM, enzyme 10 nM, 37° C., pH7.4, read-out: Human proteinase 3 (hPr3) IC50
T1 construct: purchased Elastin Products Company, USA
T1 sequence (P24158 28-248): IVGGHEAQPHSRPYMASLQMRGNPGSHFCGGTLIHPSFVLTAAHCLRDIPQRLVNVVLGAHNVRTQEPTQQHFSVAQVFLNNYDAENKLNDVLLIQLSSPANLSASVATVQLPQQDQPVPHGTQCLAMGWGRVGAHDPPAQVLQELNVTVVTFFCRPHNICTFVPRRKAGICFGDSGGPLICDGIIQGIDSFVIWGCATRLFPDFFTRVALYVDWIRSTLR
Outline: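 Enzyme at 10 nM incubated at 37°C with 1 mM thiobenzyl ester substrate, 250 μM 4,4′-dithiodipyridine and serial peptide dilutions (0.5% DMSO) in Tris pH 7.4, 150 mM NaCl, 0.01% Tween20. Absorbance at 340 nm followed over 30 min; IC50 from 4-parameter Hill fit.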

[1] = target: T2, porcine pancreatic elastase (Sus scrofa, UniProt P00772); assay: Inhibition of porcine pancreatic elastase (hydrolysis of MeOSuc-AAA-pNA); settings: for hNE/PPE selectivity: ratio of PPE IC50 to hNE IC50; for IC50: substrate MeOSuc-AAA-pNA 1 mM, enzyme 15 nM, 37° C., pH8, read-out: Porcine pancreatic elastase (PPE) IC50
T2 construct: purchased Sigma, USA
T2 sequence (P00772 27-266): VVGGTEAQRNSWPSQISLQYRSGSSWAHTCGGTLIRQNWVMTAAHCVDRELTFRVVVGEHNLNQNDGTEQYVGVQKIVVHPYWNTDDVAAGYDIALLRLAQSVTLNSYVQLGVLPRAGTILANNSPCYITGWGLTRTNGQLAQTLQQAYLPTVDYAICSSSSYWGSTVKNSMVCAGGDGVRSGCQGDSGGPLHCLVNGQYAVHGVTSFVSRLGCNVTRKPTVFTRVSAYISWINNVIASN
Outline: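 Elastase (15 nM) incubated at 37 °C with 1 mM MeOSuc-AAA-pNA and serially diluted peptides (0.5% DMSO) in 50 mM Tris pH 8, 100 mM NaCl, 0.01% Tween20. pNA release read at 405 nm over 30 min; IC50 from 4-parameter Hill fit.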

[2] = target: T3, human neutrophil elastase (Homo sapiens, UniProt P08246); assay: Inhibition of human neutrophil elastase (hydrolysis of MeOSuc-AAPV-pNA); settings: substrate MeOSuc-AAPV-pNA 0.3 mM, enzyme 10 nM, 37° C., pH 8; read-out: Human neutrophil elastase (hNE) IC50
T3 construct: purchased Serva Electrophoresis, Germany
T3 sequence (P08246 30-267): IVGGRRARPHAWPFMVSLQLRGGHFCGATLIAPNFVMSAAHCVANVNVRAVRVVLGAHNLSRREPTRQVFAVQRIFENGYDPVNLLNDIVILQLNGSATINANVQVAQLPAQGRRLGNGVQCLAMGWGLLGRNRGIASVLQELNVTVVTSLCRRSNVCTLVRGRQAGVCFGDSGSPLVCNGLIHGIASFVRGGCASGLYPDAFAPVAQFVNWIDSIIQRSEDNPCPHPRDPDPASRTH
Outline: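 MeOSuc-AAPV-pNA (0.3 mM) hydrolysis by 10 nM enzyme at 37° C with serially diluted peptides (1% DMSO) in 50 mM Tris pH 8, 300 mM NaCl, 0.01% Tween20. pNA release read at 405 nm over 30 minutes; IC50 from 4-parameter Hill fit.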

| hNE/hPr3 selectivity (human proteinase 3) | IC50 (human proteinase 3) | hNE/PPE selectivity [1] | IC50 [1] | IC50 [2] | SMILES |
| --- | --- | --- | --- | --- | --- |
| 1432 | 32.8 µM | 2275 | 52.1 µM | 0.0229 µM | CCCCCCCC[C@@H]1NC(=O)[C@H](Cc2ccc(O)cc2)NC(=O)[C@@H](CO)NC(=O)[C@H]([C@@H](C)O)NC(=O)[C@H](CCCCN)NC(=O)[C@H](CCC(N)=O)NC(=O)[C@@H]2CCCN2C(=O)[C@@H]2CCCN2C(=O)[C@H]([C@@H](C)CC)NC(=O)[C@H](CO)NC(=O)[C@H](C)NC(=O)[C@H]([C@@H](C)O)NC(=O)[C@H](CCC(=O)O)NC1=O [Example 31, Cyclo(-OctGly-Glu-Thr-Ala-Ser-Ile-Pro-Pro-GI n-Lys-Thr-^DSer-Tyr-)] (cyclo([Gly(octyl)]ETASIPPQKT[dS]Y)) |
| >8333 | > 100 µM | >8333 | > 100 µM | 0.012 µM | CCCCCCCC[C@@H]1NC(=O)[C@H](CCCCN)NC(=O)[C@@H](CCCCN)NC(=O)[C@H]([C@@H](C)O)NC(=O)[C@H](CCCCN)NC(=O)[C@H](CCC(N)=O)NC(=O)[C@@H]2CCCN2C(=O)[C@@H]2CCCN2C(=O)[C@H]([C@@H](C)CC)NC(=O)[C@H](CO)NC(=O)[C@H](C)NC(=O)[C@H]([C@@H](C)O)NC(=O)[C@H](CCC(=O)O)NC1=O [Example 28, Cyclo(-OctGly-Glu-Thr-Ala-Ser-Ile-Pro-Pro-GI n-Lys-Thr-^DLys-Lys-)] (cyclo([Gly(octyl)]ETASIPPQKT[dK]K)) |
| 6531 | 41.8 µM | 7031 | 45 µM | 0.0064 µM | CCCCCCCC[C@@H]1NC(=O)[C@H](CCCCN)NC(=O)[C@@H](Cc2ccc(O)cc2)NC(=O)[C@H]([C@@H](C)O)NC(=O)[C@H](CCCCN)NC(=O)[C@H](CCC(N)=O)NC(=O)[C@@H]2CCCN2C(=O)[C@@H]2CCCN2C(=O)[C@H]([C@@H](C)CC)NC(=O)[C@H](CO)NC(=O)[C@H](C)NC(=O)[C@H]([C@@H](C)O)NC(=O)[C@H](CCC(=O)O)NC1=O [Example 25, Cyclo(-OctGly-Glu-Thr-Ala-Ser-Ile-Pro-Pro-GI n-Lys-Thr-^DTyr-Lys-)] (cyclo([Gly(octyl)]ETASIPPQKT[dY]K)) |
| 1192 | 14.3 µM | 4267 | 51.2 µM | 0.012 µM | CCCCCCCC[C@@H]1NC(=O)[C@H](C(C)C)NC(=O)[C@@H](CO)NC(=O)[C@H]([C@@H](C)O)NC(=O)[C@H](CCCCN)NC(=O)[C@H](CCC(N)=O)NC(=O)[C@@H]2CCCN2C(=O)[C@@H]2CCCN2C(=O)[C@H]([C@@H](C)CC)NC(=O)[C@H](CO)NC(=O)[C@H](C)NC(=O)[C@H]([C@@H](C)O)NC(=O)[C@H](CCC(=O)O)NC1=O [Example 30, Cyclo(-OctGly-Glu-Thr-Ala-Ser-Ile-Pro-Pro-Gln-Lys-Thr-^DSer-Val-)] (cyclo([Gly(octyl)]ETASIPPQKT[dS]V)) |
| 2366 | 45.2 µM | 4859 | 92.8 µM | 0.0191 µM | CCCCCCCC(=O)NCC[C@@H]1NC(=O)[C@@H]2CCCN2C(=O)[C@H]2CCCN2C(=O)[C@H]([C@@H](C)O)NC(=O)[C@H](CCCCN)NC(=O)[C@H](CCC(N)=O)NC(=O)[C@@H]2CCCN2C(=O)[C@@H]2CCCN2C(=O)[C@H]([C@@H](C)CC)NC(=O)[C@H](CO)NC(=O)[C@H](C)NC(=O)[C@H]([C@@H](C)O)NC(=O)[C@H](CCC(=O)O)NC1=O [Example 15, Cyclo(-Dab(Octanoyl)-Glu-Thr-Ala-Ser-Ile-Pro-Pro-Gln-Lys-Thr-^DPro-Pro-)] (cyclo([Dab](Octanoyl)ETASIPPQKT[dP]P)) |
| >9901 | > 100 µM | 2119 | 21.4 µM | 0.0101 µM | CCCCCCCC[C@@H]1NC(=O)[C@@H]2CCCN2C(=O)[C@H]2CCCN2C(=O)[C@H]([C@@H](C)O)NC(=O)[C@H](CCCCN)NC(=O)[C@H](CCC(N)=O)NC(=O)[C@@H]2CCCN2C(=O)[C@@H]2CCCN2C(=O)[C@H]([C@@H](C)CC)NC(=O)[C@H](CO)NC(=O)[C@H](C)NC(=O)[C@H]([C@@H](C)O)NC(=O)[C@H](Cc2ccccc2)NC1=O [Example 13, Cyclo(-OctGly-Phe-Thr-Ala-Ser-Ile-Pro-Pro-Gln-Lys-Thr-^DPro-Pro-)] (cyclo([Gly(octyl)]FTASIPPQKT[dP]P)) |
| >4484 | > 100 µM | 4036 | 90 µM | 0.0223 µM | CCCCCCCC[C@@H]1NC(=O)[C@H](CCCCN)NC(=O)[C@@H](CO)NC(=O)[C@H]([C@@H](C)O)NC(=O)[C@H](CCCCN)NC(=O)[C@H](CCC(N)=O)NC(=O)[C@@H]2CCCN2C(=O)[C@@H]2CCCN2C(=O)[C@H]([C@@H](C)CC)NC(=O)[C@H](CO)NC(=O)[C@H](C)NC(=O)[C@H]([C@@H](C)O)NC(=O)[C@H](CCC(=O)O)NC1=O [Example 32, Cyclo(-OctGly-Glu-Thr-Ala-Ser-Ile-Pro-Pro-GI n-Lys-Thr-^DSer-Lys-)] (cyclo([Gly(octyl)]ETASIPPQKT[dS]K)) |
| 24655 | 71.5 µM | 30310 | 87.9 µM | 0.0029 µM | CCCCCCCC[C@@H]1NC(=O)C[C@@H]2CCCN2C(=O)[C@H]2CCCN2C(=O)[C@H]([C@@H](C)O)NC(=O)[C@H](CCCCN)NC(=O)[C@H](CCC(N)=O)NC(=O)[C@@H]2CCCN2C(=O)[C@@H]2CCCN2C(=O)[C@H]([C@@H](C)CC)NC(=O)[C@H](CO)NC(=O)[C@H](C)NC(=O)[C@H]([C@@H](C)O)NC(=O)[C@H](CCC(=O)O)NC1=O [Example 39] (cyclo([Gly(octyl)]ETASIPPQKT[dP][β3hP])) |
| 119 | 1.02 µM | 157 | 1.35 µM | 0.0086 µM | CCCCCCCC[C@@H]1NC(=O)[C@@H]2CCCN2C(=O)[C@H]2CCCN2C(=O)[C@H](CCO)NC(=O)[C@H](CCCCN)NC(=O)[C@H](CCC(N)=O)NC(=O)[C@@H]2CCCN2C(=O)[C@@H]2CCCN2C(=O)[C@H]([C@@H](C)CC)NC(=O)[C@H](CO)NC(=O)[C@H](C)NC(=O)[C@H]([C@@H](C)O)NC(=O)[C@H](CCC(=O)O)NC1=O [Example 4, Cyclo(-OctGly-Glu-Thr-Ala-Ser-Ile-Pro-Pro-Gln-Lys-hSer-^DPro-Pro-)] (cyclo([Gly(octyl)]ETASIPPQK[hSer][dP]P)) |
| 535 | 9.2 µM | 535 | 9.2 µM | 0.0172 µM | CCCCCCCC[C@@H]1NC(=O)[C@@H]2CCCN2C(=O)[C@H]2CCCN2C(=O)[C@H]([C@@H](C)O)NC(=O)CC[C@H](CCCCN)NC(=O)[C@H](CCC(N)=O)NC(=O)[C@@H]2CCCN2C(=O)[C@@H]2CCCN2C(=O)[C@H]([C@@H](C)CC)NC(=O)[C@H](CO)NC(=O)[C@H](C)NC(=O)[C@H]([C@@H](C)O)NC(=O)[C@H](CCC(=O)O)NC1=O [Example 38, Cyclo(-OctGly-Glu-Thr-Ala-Ser-Ile-Pro-Pro-Gln-[H-γ^4-DiHLys-OH]-Thr-^DPro-Pro-)] (cyclo([Gly(octyl)]ETASIPPQ[X1]T[dP]P)) |
